Source: patent US20250282735A1, “BICYCLE COMPOUNDS AS TEAD INHIBITOR” (DONG-A ST CO., LTD., priority 2022, published 2025)

System: TEAD reporter-containing human breast cancer cell line MCF7
Assay: TEAD reporter (luciferase) assay
Type: cell-based
Conditions: TEAD reporter MCF7 cells, 24 hours treatment, 1% serum media
Experimental: The TEAD reporter-containing human breast cancer cell line MCF7 (60618, BPS bioscience) was cultured according to the manufacturer's instructions. Cells were plated in 96-well white plates at a density of 30,000 per well and incubated overnight. The following day cells were treated with small molecules in 1% serum media (0.1% v/v DMSO). After 24 hours of the treatment, cell viability was evaluated by using CCK-8 reagent (CK04, Dojindo) and measuring absorbance at 450 nm. Then, the assay for luciferase activity was performed using Dual-Glo® Luciferase Assay System (Promega, E2940) following the manufacturer's instructions. Luminescence intensity was measured and the potency of the compounds was determined by IC50 value generated from non-linear regression analysis of the dose-response curves.
IC50 for luciferase activity are shown in the Table 1 below and designated within the following ranges. [+++: ≤0.1 μM, ++: >0.1 μM to ≤1 μM, +: >1 μM to ≤10 μM, −: >10 μM]

SMILES | IC50
C=CC(=O)Nc1ccc2c(c1)c(/C=C/c1ccc(Cl)cc1)nn2C(C)C [Compound 6, (E)-N-(3-(4-Chlorostyryl)-1-isopropyl-1H-indazol-5-yl)acrylamide] | > 10000 nM
C=CC(=O)Nc1ccc2c(c1)c(/C=C/c1ccc(Cl)cc1)cn2C(C)=O [Example 75, (E)-N-(1-Acetyl-3-(4-chlorostyryl)-1H-indol-5-yl)acrylamide] | > 10000 nM
Cn1cc(/C=C/c2ccc(Cl)cc2)c2cc(NC(=O)CC#N)cnc21 [Example 115, (E)-N-(3-(4-chlorostyryl)-1-methyl-1H-pyrrolo[2,3-b]pyridin-5-yl)-2-cyanoacetamide] | > 10000 nM
CN(C)C/C=C/C(=O)Nc1cnc2c(c1)c(-c1ccc(C(F)(F)F)cc1)cn2C [Example 120, (E)-4-(Dimethylamino)-N-(1-methyl-3-(4-(trifluoromethyl)phenyl)-1H-pyrrolo[2,3-b]pyridin-5-yl) but-2-enamide 2,2,2-trifluoroacetate] | 1000 to 10000 nM
C=CC(=O)Nc1cnc2c(c1)c(/C=C/c1cccs1)cn2C [Example 82, (E)-N-(1-Methyl-3-(2-(thiophen-2-yl)vinyl)-1H-pyrrolo[2,3-b]pyridin-5-yl)acrylamide] | 100 to 1000 nM
C=CC(=O)Nc1cnc2c(c1)c(CC1CCCCC1)cn2C [Example 138, N-(3-(Cyclohexylmethyl)-1-methyl-1H-pyrrolo[2,3-b]pyridin-5-yl)acrylamide] | ≤ 100 nM
C=CC(=O)Nc1ccc2c(c1)c(/C=C/C1CCC(F)(F)CC1)nn2C1CCCC1 [Compound 7, (E)-N-(1-Cyclopentyl-3-(2-(4,4-difluorocyclohexyl)vinyl)-1H-indazol-5-yl)acrylamide] | 100 to 1000 nM
C=CC(=O)N(Cc1nn[nH]n1)c1cnc2c(c1)c(/C=C/c1ccc(Cl)cc1)cn2C [Example 69, (E)-N-((2H-Tetrazol-5-yl)methyl)-N-(3-(4-chlorostyryl)-1-methyl-1H-pyrrolo[2,3-b]pyridin-5-yl)acrylamide] | 1000 to 10000 nM
C=CC(=O)Nc1cnc2c(c1)c(-c1ccc(C#N)cc1)cn2C [Example 57, N-(3-(4-Cyanophenyl)-1-methyl-1H-pyrrolo[2,3-b]pyridin-5-yl)acrylamide] | 1000 to 10000 nM
C=CC(=O)Nc1ccc2c(c1)c(C1CCC(OC)CC1)cn2C (stereo not shown) [Example 126, N-(3-(4-Methoxycyclohexyl)-1-methyl-1H-indol-5-yl)acrylamide] | > 10000 nM
C=CC(=O)Nc1cnc2c(c1)c(/C=C/C1CCC(F)(F)CC1)cn2C1CCCC1 [Compound 9, (E)-N-(1-Cyclopentyl-3-(2-(4,4-difluorocyclohexyl)vinyl)-1H-pyrrolo[2,3-b]pyridin-5-yl)acrylamide] | ≤ 100 nM
C=CC(=O)Nc1cnc2c(c1)c(-c1ccc(CCCC)cc1)cn2C [Example 110, N-(3-(4-Butylphenyl)-1-methyl-1H-pyrrolo[2,3-b]pyridin-5-yl)acrylamide] | 100 to 1000 nM
C=CC(=O)Nc1cnc2c(c1)c(Cc1cccc(Cl)c1)cn2C [Example 136, N-(3-(3-Chlorobenzyl)-1-methyl-1H-pyrrolo[2,3-b]pyridin-5-yl)acrylamide] | ≤ 100 nM
C=CC(=O)Nc1cnc2c(c1)c(/C=C/c1ccc(Cl)cc1)cn2C(C)C [Compound 20, (E)-N-(3-(4-Chlorostyryl)-1-isopropyl-1H-pyrrolo[2,3-b]pyridin-5-yl)acrylamide] | 1000 to 10000 nM
C=CC(=O)Nc1cnc2c(c1)c(/C=C/C1CCOCC1)cn2C [Example 58, (E)-N-(1-Methyl-3-(2-(tetrahydro-2H-pyran-4-yl)vinyl)-1H-pyrrolo[2,3-b]pyridin-5-yl)acrylamide] | 100 to 1000 nM
C=CC(=O)Nc1ccc2c(c1)c(C1CCCCC1)cn2C [Example 123, N-(3-Cyclohexyl-1-methyl-1H-indol-5-yl)acrylamide] | ≤ 100 nM
C=CC(=O)Nc1cnc2c(c1)c(-c1cccc(C(F)(F)F)c1)cn2C(F)F [Example 134, N-(1-(Difluoromethyl)-3-(3-(trifluoromethyl)phenyl)-1H-pyrrolo[2,3-b]pyridin-5-yl)acrylamide] | 100 to 1000 nM
C=CC(=O)Nc1cnc2c(c1)c(-c1ccc(CCCCCCCCC)cc1)cn2C [Example 112, N-(1-Methyl-3-(4-nonylphenyl)-1H-pyrrolo[2,3-b]pyridin-5-yl)acrylamide] | > 10000 nM
C=CC(=O)Nc1cnc2c(c1)c(-c1cccc(CCC3CCC(F)(F)CC3)c1)cn2C [Example 86, N-(3-(3-(2-(4,4-Difluorocyclohexyl)ethyl)phenyl)-1-methyl-1H-pyrrolo[2,3-b]pyridin-5-yl)acrylamide] | 100 to 1000 nM
C=CC(=O)Nc1cnc2c(c1)c(C=C1CCCCC1)cn2C [Example 137, N-(3-(Cyclohexylidenemethyl)-1-methyl-1H-pyrrolo[2,3-b]pyridin-5-yl)acrylamide] | ≤ 100 nM

SMILES | IC50
C=CS(=O)(=O)Nc1cnc2c(c1)c(/C=C/c1ccc(Cl)cc1)cn2C [Example 116, (E)-N-(3-(4-Chlorostyryl)-1-methyl-1H-pyrrolo[2,3-b]pyridin-5-yl) ethenesulfonamide] | 100 to 1000 nM
C=CC(=O)Nc1cnc2c(c1)c(-c1ccc(C(C)(C)C)cc1)cn2C [Example 109, N-(3-(4-(tert-Butyl)phenyl)-1-methyl-1H-pyrrolo[2,3-b]pyridin-5-yl)acrylamide] | 1000 to 10000 nM
C=CC(=O)Nc1cnc2c(c1)c(/C=C/c1ccsc1)cn2C [Example 59, (E)-N-(1-Methyl-3-(2-(thiophen-3-yl)vinyl)-1H-pyrrolo[2,3-b]pyridin-5-yl)acrylamide] | 100 to 1000 nM
C=CC(=O)Nc1cnc2c(c1)c(-c1ccc(C3CCCCC3)cc1)cn2C [Example 108, N-(3-(4-Cyclohexylphenyl)-1-methyl-1H-pyrrolo[2,3-b]pyridin-5-yl)acrylamide] | 100 to 1000 nM
C=CC(=O)Nc1cnc2c(c1)c(/C=C/c1ccc3c(c1)OCCO3)cn2C [Example 61, (E)-N-(3-(2-(2,3-Dihydrobenzo[b][1,4]dioxin-6-yl)vinyl)-1-methyl-1H-pyrrolo[2,3-b]pyridin-5-yl)acrylamide] | 1000 to 10000 nM
C=CC(=O)Nc1cnc2ccn(Cc3ccc(C(F)(F)F)cc3)c2c1 [Example 76, N-(1-(4-(Trifluoromethyl)benzyl)-1H-pyrrolo[3,2-b]pyridin-6-yl)acrylamide] | ≤ 100 nM
C=CC(=O)Nc1ccc2c(c1)c(C1=CCC(OC)CC1)cn2C (stereo not shown) [Example 125, N-(3-(4-Methoxycyclohex-1-en-1-yl)-1-methyl-1H-indol-5-yl)acrylamide] | 1000 to 10000 nM
C=CC(=O)Nc1cc(F)c2c(c1)c(/C=C/c1ccc(Cl)cc1)cn2C(C)C [Compound 39, (E)-N-(3-(4-Chlorostyryl)-7-fluoro-1-isopropyl-1H-indol-5-yl)acrylamide] | > 10000 nM
C=CC(=O)Nc1cnc2c(c1)c(C1=CCCCC1)cn2C [Example 101, N-(3-(Cyclohex-1-en-1-yl)-1-methyl-1H-pyrrolo[2,3-b]pyridin-5-yl)acrylamide] | 1000 to 10000 nM
C=CC(=O)Nc1cnc2c(c1)c(-c1cccc(C(F)(F)F)c1)cn2C [Compound 54, N-(1-Methyl-3-(3-(trifluoromethyl)phenyl)-1H-pyrrolo[2,3-b]pyridin-5-yl)acrylamide] | ≤ 100 nM
C=CC(=O)Nc1cnc2c(c1)c(/C=C/C1CC1C(=O)OCC)cn2C (stereo not shown) [Example 62, Ethyl (E)-2-(2-(5-acrylamido-1-methyl-1H-pyrrolo[2,3-b]pyridin-3-yl)vinyl)cyclopropane-1-carboxylate] | > 10000 nM
C=CC(=O)Nc1cnc2c(c1)c(/C=C/C1CC1)cn2C [Example 60, (E)-N-(3-(2-Cyclopropylvinyl)-1-methyl-1H-pyrrolo[2,3-b]pyridin-5-yl)acrylamide] | 1000 to 10000 nM
C=CC(=O)Nc1ccc2c(c1)c(/C=C/c1ccc(Cl)cc1)cn2C1CCCC1 [Compound 11, (E)-N-(3-(4-Chlorostyryl)-1-cyclopentyl-1H-indol-5-yl)acrylamide] | 1000 to 10000 nM
C=CC(=O)Nc1cnc2c(c1)c(-c1ccc(SC)cc1)cn2C [Compound 55, N-(1-Methyl-3-(4-(methylthio)phenyl)-1H-pyrrolo[2,3-b]pyridin-5-yl)acrylamide] | 100 to 1000 nM
C=CC(=O)Nc1cnc2c(c1)c(-c1cc(C)c(O)c(C)c1)cn2C [Example 113, N-(3-(4-Hydroxy-3,5-dimethylphenyl)-1-methyl-1H-pyrrolo[2,3-b]pyridin-5-yl)acrylamide] | > 10000 nM
Cn1cc(/C=C/c2ccc(Cl)cc2)c2cc(NS(C)(=O)=O)cnc21 [Example 117, (E)-N-(3-(4-Chlorostyryl)-1-methyl-1H-pyrrolo[2,3-b]pyridin-5-yl) methanesulfonamide] | 100 to 1000 nM
C=CC(=O)Nc1cc(F)c2c(c1)c(/C=C/C1CCC(F)(F)CC1)cn2C(C)C [Compound 38, (E)-N-(3-(2-(4,4-Difluorocyclohexyl)vinyl)-7-fluoro-1-isopropyl-1H-indol-5-yl)acrylamide] | 1000 to 10000 nM
C=CC(=O)Nc1ccc2c(c1)c(/C=C/c1ccc(F)cc1)cn2C(C)C [Compound 29, (E)-N-(3-(4-Fluorostyryl)-1-isopropyl-1H-indol-5-yl)acrylamide] | > 10000 nM
C=CC(=O)N(CC(=O)O)c1cnc2c(c1)c(/C=C/c1ccc(Cl)cc1)cn2C [Example 65, (E)-N-Acryloyl-N-(3-(4-chlorostyryl)-1-methyl-1H-pyrrolo[2,3-b]pyridin-5-yl)glycine] | > 10000 nM
C=CC(=O)Nc1ccc2c(c1)c(C1=CCC(C)(C)CC1)cn2C [Example 124, N-(3-(4,4-dimethylcyclohex-1-en-1-yl)-1-methyl-1H-indol-5-yl)acrylamide] | ≤ 100 nM
